Reference: patent US9771360B2, “Cyano-substituted imidazo[1,2-A]pyridinecarboxamides and their use” (Bayer Pharma Aktiengesellschaft, priority 2014, dated 2017)

These compounds were tested against T1, recombinant guanylate cyclase reporter cell line (Rattus norvegicus, UniProt P19686+P20595) (assay: Effect on a recombinant guanylate cyclase reporter cell line (B-2)). Conditions: MEC = minimum effective concentration; in some cases mean values from individual determinations.
T1 construct: expressed in transfected cells
T1 sequence (P20595 1-619): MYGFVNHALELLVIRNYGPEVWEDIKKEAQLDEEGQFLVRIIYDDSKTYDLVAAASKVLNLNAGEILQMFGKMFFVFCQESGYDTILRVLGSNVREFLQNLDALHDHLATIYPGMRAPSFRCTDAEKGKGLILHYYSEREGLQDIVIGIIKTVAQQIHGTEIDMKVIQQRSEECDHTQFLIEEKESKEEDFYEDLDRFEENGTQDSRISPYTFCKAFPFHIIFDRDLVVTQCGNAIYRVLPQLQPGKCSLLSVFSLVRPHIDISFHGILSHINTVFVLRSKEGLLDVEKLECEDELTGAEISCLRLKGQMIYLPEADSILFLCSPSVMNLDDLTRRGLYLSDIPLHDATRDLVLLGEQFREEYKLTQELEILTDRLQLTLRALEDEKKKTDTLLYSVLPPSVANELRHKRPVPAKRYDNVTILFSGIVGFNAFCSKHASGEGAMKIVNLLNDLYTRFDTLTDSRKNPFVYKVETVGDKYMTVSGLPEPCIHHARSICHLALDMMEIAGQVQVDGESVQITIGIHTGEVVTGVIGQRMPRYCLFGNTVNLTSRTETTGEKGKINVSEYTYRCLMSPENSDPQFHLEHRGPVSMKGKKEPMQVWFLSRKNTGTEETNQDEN
T1 sequence (P19686 1-690): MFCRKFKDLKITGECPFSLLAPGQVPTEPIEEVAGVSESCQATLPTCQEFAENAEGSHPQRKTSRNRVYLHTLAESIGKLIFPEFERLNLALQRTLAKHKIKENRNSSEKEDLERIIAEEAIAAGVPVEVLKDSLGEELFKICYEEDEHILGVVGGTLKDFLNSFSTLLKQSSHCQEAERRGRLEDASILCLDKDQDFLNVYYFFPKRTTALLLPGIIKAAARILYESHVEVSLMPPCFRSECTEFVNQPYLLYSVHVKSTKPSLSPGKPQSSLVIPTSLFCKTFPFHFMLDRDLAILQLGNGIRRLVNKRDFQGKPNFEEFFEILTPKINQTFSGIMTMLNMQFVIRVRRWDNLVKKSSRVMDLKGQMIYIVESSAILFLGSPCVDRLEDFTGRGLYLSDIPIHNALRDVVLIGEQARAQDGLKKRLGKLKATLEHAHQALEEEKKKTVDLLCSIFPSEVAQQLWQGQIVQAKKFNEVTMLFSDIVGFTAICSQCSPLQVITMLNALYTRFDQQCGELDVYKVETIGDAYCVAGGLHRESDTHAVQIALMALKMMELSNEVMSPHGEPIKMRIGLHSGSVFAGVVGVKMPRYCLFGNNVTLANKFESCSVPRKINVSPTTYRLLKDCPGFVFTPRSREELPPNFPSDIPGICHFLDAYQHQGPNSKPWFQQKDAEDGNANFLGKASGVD
Assay type: cell-based
Procedure: B-2. Effect on a Recombinant Guanylate Cyclase Reporter Cell Line
The cellular activity of the compounds according to the invention is determined using a recombinant guanylate cyclase reporter cell line, as described in F. Wunder et al., Anal. Biochem. 339, 104-112 (2005).
Representative MEC values (MEC=minimum effective concentration) for the compounds of the invention are shown in the table below (in some cases as mean values from individual determinations): […]

MEC	SMILES
0.3 µM	Cc1cc(OCc2c(F)cccc2F)c2nc(C)c(C(=O)NCCC#N)n2c1 [Example 9, N-(2-cyanoethyl)-8-[(2,6-difluorobenzyl)oxy]-2,6-dimethylimidazo[1,2-a]pyridine-3-carboxamide]
0.3 µM	Cc1cc(OCc2c(F)cccc2F)c2nc(C)c(C(=O)NC3CCCCC3C#N)n2c1 (stereo not drawn) [Example 11, N-(2-cyanocyclohexyl)-8-[(2,6-difluorobenzyl)oxy]-2,6-dimethylimidazo[1,2-a]pyridine-3-carboxamide]
0.3 µM	COCC(C)(C#N)NC(=O)c1c(C)nc2c(OCc3c(F)cccc3F)cc(C)cn12 (racemic) [Example 7, rac-N-(2-cyano-1-methoxypropan-2-yl)-8-[(2,6-difluorobenzyl)oxy]-2,6-dimethylimidazo[1,2-a]pyridine-3-carboxamide]
0.03 µM	Cc1cc(OCc2c(F)cccc2F)c2nc(C)c(C(=O)NC3(C#N)CCC3)n2c1 [Example 5, N-(1-cyanocyclobutyl)-8-[(2,6-difluorobenzyl)oxy]-2,6-dimethylimidazo[1,2-a]pyridine-3-carboxamide]
0.1 µM	Cc1cc(OCc2c(F)cccc2F)c2nc(C)c(C(=O)NCCCCCC#N)n2c1 [Example 10, N-(5-cyanopentyl)-8-[(2,6-difluorobenzyl)oxy]-2,6-dimethylimidazo[1,2-a]pyridine-3-carboxamide]
0.3 µM	Cc1cc(OCc2c(F)cccc2F)c2nc(C)c(C(=O)NC(C)C#N)n2c1 (single isomer, unassigned) [Example 15, ent-N-(1-Cyanoethyl)-8-[(2,6-difluorobenzyl)oxy]-2,6-dimethylimidazo[1,2-a]pyridine-3-carboxamide]
0.3 µM	COc1ccc(NC(=O)c2c(C)nc3c(OCc4c(F)cccc4F)cc(C)cn23)cc1C#N [Example 37, N-(3-cyano-4-methoxyphenyl)-8-[(2,6-difluorobenzyl)oxy]-2,6-dimethylimidazo[1,2-a]pyridine-3-carboxamide]
1 µM	CCOc1ccc(NC(=O)c2c(C)nc3c(OCc4c(F)cccc4F)cc(C)cn23)cc1C#N [Example 32, N-(3-Cyano-4-ethoxyphenyl)-8-[(2,6-difluorobenzyl)oxy]-2,6-dimethylimidazo[1,2-a]pyridine-3-carboxamide]
0.3 µM	Cc1cc(OCc2c(F)cccc2F)c2nc(C)c(C(=O)NC3CNCC(C#N)C3)n2c1 (stereo not drawn) [Example 38, N-(5-Cyanopiperidin-3-yl)-8-[(2,6-difluorobenzyl)oxy]-2,6-dimethylimidazo[1,2-a]pyridine-3-carboxamide]
1 µM	Cc1cc(OCc2c(F)cccc2F)c2nc(C)c(C(=O)Nc3ccc(CC#N)cc3)n2c1 [Example 36, N-[4-(cyanomethyl)phenyl]-8-[(2,6-difluorobenzyl)oxy]-2,6-dimethylimidazo[1,2-a]pyridine-3-carboxamide]
1 µM	Cc1cc(OCc2c(F)cccc2F)c2nc(C)c(C(=O)NC(C#N)C(N)=O)n2c1 (racemic) [Example 34, rac-N-(2-amino-1-cyan-2-oxoethyl)-8-[(2,6-difluorobenzyl)oxy]-2,6-dimethylimidazo[1,2-a]pyridine-3-carboxamide]
0.3 µM	CCc1nc2c(OCc3c(F)cccc3F)cc(C)cn2c1C(=O)NC(C#N)c1ccc(Cl)cc1 (racemic) [Example 27, rac-N-[(4-chlorophenyl)(cyano)methyl]-8-[(2,6-difluorobenzyl)oxy]-2-ethyl-6-methylimidazo[1,2-a]pyridine-3-carboxamide]
0.3 µM	Cc1cc(OCc2c(F)cccc2F)c2nc(C)c(C(=O)NCC#N)n2c1 [Example 2, N-(cyanomethyl)-8-[(2,6-difluorobenzyl)oxy]-2,6-dimethylimidazo[1,2-a]pyridine-3-carboxamide]
0.1 µM	Cc1cc(OCc2c(F)cccc2F)c2nc(C)c(C(=O)NC(C)(C)C#N)n2c1 [Example 3, N-(2-cyanopropan-2-yl)-8-[(2,6-difluorobenzyl)oxy]-2,6-dimethylimidazo[1,2-a]pyridine-3-carboxamide]
10 µM	Cc1cc(OCC2CC(F)(F)C2)c2nc(C)c(C(=O)NC(C#N)c3ccc(Cl)cc3)n2c1 (racemic) [Example 31, rac-N-[(4-chlorophenyl)(cyano)methyl]-8-[(3,3-difluorocyclobutyl)methoxy]-2,6-dimethylimidazo[1,2-a]pyridine-3-carboxamide]
0.3 µM	Cc1cc(OCc2c(F)ccc(F)c2F)c2nc(C)c(C(=O)NC(C#N)c3ccc(Cl)cc3)n2c1 (racemic) [Example 17, rac-N-[(4-Chlorophenyl)(cyano)methyl]-2,6-dimethyl-8-[(2,3,6-trifluorobenzyl)oxy]imidazo[1,2-a]pyridine-3-carboxamide]
0.1 µM	Cc1cc(OCc2c(F)cccc2F)c2nc(C)c(C(=O)NCC3CCC(C#N)CC3)n2c1 (stereo not drawn) [Example 12, N-[(4-cyanocyclohexyl)methyl]-8-[(2,6-difluorobenzyl)oxy]-2,6-dimethylimidazo[1,2-a]pyridine-3-carboxamide]
2 µM	Cc1cc(OCc2c(F)cccc2F)c2nc(C)c(C(=O)NCC(N)CCCC#N)n2c1 (racemic) [Example 45, rac-N-(2-Amino-5-cyanopentyl)-8-[(2,6-difluorobenzyl)oxy]-2,6-dimethylimidazo[1,2-a]pyridine-3-carboxamide]
1 µM	Cc1cc(OCc2c(F)cccc2F)c2nc(C)c(C(=O)NCC(N)CCC#N)n2c1 (racemic) [Example 44, rac-N-(2-Amino-4-cyanobutyl)-8-[(2,6-difluorobenzyl)oxy]-2,6-dimethylimidazo[1,2-a]pyridine-3-carboxamide]
0.1 µM	Cc1cc(OCc2c(F)cccc2F)c2nc(C)c(C(=O)NC(C#N)c3ccc(Cl)cc3)n2c1 (racemic) [Example 8, rac-N-[(4-chlorophenyl)(cyano)methyl]-8-[(2,6-difluorobenzyl)oxy]-2,6-dimethylimidazo[1,2-a]pyridine-3-carboxamide]
3 µM	Cc1cc(OCc2c(F)cccc2F)c2nc(C)c(C(=O)NCC(N)CCCC#N)n2c1 (single isomer, unassigned) [Example 46, ent-N-(2-Amino-5-cyanopentyl)-8-[(2,6-difluorobenzyl)oxy]-2,6-dimethylimidazo[1,2-a]pyridine-3-carboxamide]
1 µM	Cc1cc(OCc2c(F)cccc2F)c2nc(C)c(C(=O)NC(CN)CC#N)n2c1 (racemic) [Example 39, rac-N-(1-Amino-3-cyanopropan-2-yl)-8-[(2,6-difluorobenzyl)oxy]-2,6-dimethylimidazo[1,2-a]pyridine-3-carboxamide]

SMILES	MEC
Cc1cc(OCCC(C(F)(F)F)C(F)(F)F)c2nc(C)c(C(=O)NC(C#N)c3ccc(Cl)cc3)n2c1 (racemic) [Example 23, rac-N-[(4-chlorophenyl)(cyano)methyl]-2,6-dimethyl-8-[4,4,4-trifluoro-3-(trifluoromethyl)butoxy]imidazo[1,2-a]pyridine-3-carboxamide]	3 µM
Cc1cc(OCCC(C)C)c2nc(C)c(C(=O)NC(C#N)c3ccc(Cl)cc3)n2c1 (racemic) [Example 25, rac-N-[(4-chlorophenyl)(cyano)methyl]-2,6-dimethyl-8-(3-methylbutoxy)imidazo[1,2-a]pyridine-3-carboxamide]	3 µM
